# What was measured:
# Format in all cases: biochemical
# His6-MmHsl (murine Hsl) [1] = target: T1, His6-MmHsl (murine Hsl) (Mus musculus, UniProt P54310); experiment: colorimetric free fatty acid release (NEFA kit); details: 0.3 mM substrate emulsified with PC/PI, 2% BSA, BTP buffer pH 7.5, 37°C, 30-60 min
# T1 construct: gene Lipe; N-terminal His6 tag kept, COS-7 cell extract; plasmid described previously (Lass et al., 2006)
# T1 sequence (P54310 1-759): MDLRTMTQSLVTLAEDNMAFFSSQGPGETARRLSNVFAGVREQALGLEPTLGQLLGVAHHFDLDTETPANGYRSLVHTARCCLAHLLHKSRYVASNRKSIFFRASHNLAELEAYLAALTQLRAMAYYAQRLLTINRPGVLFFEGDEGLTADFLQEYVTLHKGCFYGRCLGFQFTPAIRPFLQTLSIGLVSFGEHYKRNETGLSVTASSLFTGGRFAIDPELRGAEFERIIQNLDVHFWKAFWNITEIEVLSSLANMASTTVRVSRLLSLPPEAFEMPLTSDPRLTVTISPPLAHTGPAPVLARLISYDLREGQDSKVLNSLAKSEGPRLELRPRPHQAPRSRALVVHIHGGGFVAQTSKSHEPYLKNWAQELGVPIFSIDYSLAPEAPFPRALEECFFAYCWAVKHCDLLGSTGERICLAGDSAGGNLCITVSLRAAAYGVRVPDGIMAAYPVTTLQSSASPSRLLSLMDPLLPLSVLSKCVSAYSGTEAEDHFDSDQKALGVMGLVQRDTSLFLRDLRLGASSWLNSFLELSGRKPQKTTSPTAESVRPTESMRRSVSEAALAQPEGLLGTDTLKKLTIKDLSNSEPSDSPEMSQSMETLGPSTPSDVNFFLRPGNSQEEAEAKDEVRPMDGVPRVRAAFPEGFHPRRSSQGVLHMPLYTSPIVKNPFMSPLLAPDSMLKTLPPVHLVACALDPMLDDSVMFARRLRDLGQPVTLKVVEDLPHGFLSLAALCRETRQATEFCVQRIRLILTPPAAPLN
# [2] = target: T2, His6-Hsl (Drosophila Hsl) (Drosophila melanogaster, UniProt A4UZQ8); experiment: colorimetric free fatty acid release (NEFA kit); details: 0.3 mM substrate emulsified with PC/PI, 2% BSA, BTP buffer pH 7.5, 37°C, 30-60 min
# T2 construct: Hsl open reading frame from cDNA RE52776 in pcDNA4/HisMax C, N-terminal His6 tag kept, COS-7 cell extract
# T2 sequence (A4UZQ8 2-881): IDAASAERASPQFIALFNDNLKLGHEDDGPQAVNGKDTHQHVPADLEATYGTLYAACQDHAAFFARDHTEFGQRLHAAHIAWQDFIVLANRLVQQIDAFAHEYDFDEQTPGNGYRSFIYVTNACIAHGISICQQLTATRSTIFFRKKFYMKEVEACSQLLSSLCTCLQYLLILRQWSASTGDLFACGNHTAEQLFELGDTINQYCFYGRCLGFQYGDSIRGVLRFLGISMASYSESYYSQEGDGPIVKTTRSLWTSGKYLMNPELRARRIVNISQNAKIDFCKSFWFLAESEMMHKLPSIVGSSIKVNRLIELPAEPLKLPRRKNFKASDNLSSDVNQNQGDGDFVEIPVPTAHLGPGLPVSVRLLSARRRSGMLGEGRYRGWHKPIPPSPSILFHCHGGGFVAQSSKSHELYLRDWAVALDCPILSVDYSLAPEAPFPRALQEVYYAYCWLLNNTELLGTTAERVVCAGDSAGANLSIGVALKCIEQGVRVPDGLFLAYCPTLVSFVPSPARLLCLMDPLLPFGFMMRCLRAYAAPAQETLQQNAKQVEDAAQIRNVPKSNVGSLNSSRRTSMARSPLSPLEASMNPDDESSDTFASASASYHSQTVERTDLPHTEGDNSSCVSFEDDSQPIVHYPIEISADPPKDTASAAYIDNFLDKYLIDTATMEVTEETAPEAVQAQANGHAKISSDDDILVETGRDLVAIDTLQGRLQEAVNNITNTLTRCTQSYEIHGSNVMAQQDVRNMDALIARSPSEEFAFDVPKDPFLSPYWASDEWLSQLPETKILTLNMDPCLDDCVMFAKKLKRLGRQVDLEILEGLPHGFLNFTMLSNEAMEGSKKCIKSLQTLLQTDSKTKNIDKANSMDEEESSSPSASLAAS
# His6-MmHsl (murine Hsl) [3] = target: T1, His6-MmHsl (murine Hsl); experiment: release of labelled fatty acid, scintillation counting; details: 0.45 mM substrate emulsified with PC/PI, 5% BSA, BTP buffer pH 7.5, 37°C, 60 min; labelled compound (14C-cholesteryl oleate tracer)
# [4] = target: T2, His6-Hsl (Drosophila Hsl); experiment: as above; details: 0.45 mM substrate emulsified with PC/PI, 5% BSA, BTP buffer pH 7.5, 37°C, 60 min; labelled compound (14C-cholesteryl oleate tracer)
Compound,colorimetric free fatty acid release (NEFA kit) (His6-MmHsl (murine Hsl) [1]),colorimetric free fatty acid release (NEFA kit) [2],"release of labelled fatty acid, scintillation counting (His6-MmHsl (murine Hsl) [3])","release of labelled fatty acid, scintillation counting [4]"
"CCCCCCCC/C=C\CCCCCCCC(=O)OCC(CO)OC(=O)CCCCCCC/C=C\CCCCCCCC (racemic) [DG 36:2, 1,2-dioleoyl-rac-glycerol]","Expression of His6-MmHsl increased cellular hydrolysis rates toward monoacylglycerol (MG), DG, TG, and SE","Expression of fly His6-Hsl elevated cellular hydrolysis rates toward MG, DG, TG, and SE",–,–
"CCCCCCCC/C=C\CCCCCCCC(=O)O[C@H]1CC[C@@]2(C)C(=CC[C@H]3[C@@H]4CC[C@H]([C@H](C)CCCC(C)C)[C@@]4(C)CC[C@@H]32)C1 [CE 18:1, cholesteryl oleate]",–,–,"Expression of His6-MmHsl increased cellular hydrolysis rates toward monoacylglycerol (MG), DG, TG, and SE","Expression of fly His6-Hsl elevated cellular hydrolysis rates toward MG, DG, TG, and SE"

# — article PMC7880688, “Hormone-sensitive lipase couples intergenerational sterol metabolism to reproductive success” (eLife, 2021)
